Results on six compounds are retold here after patent publication US20080152640A1, “Means and Methods For Treating a Disease Which is Associated With an Excess Transport of Hyaluronan Across a Lipid Bilayer” (priority 2003, published 2008).

Like-named read-outs stand apart in the source and are kept apart here. Bounds are passed on as bounds.

One data set concerns human fibroblasts. As to the kind of experiment: Hyaluronan production of human fibroblasts (ELISA of culture medium). In kind it is cell-based. As to conditions: for IC50: read-out: HA production (IC50); for hyaluronan in culture medium: human skin fibroblasts / fibroblast cell line, increasing concentrations, 3 days. A general note: An ELISA detects its analyte on a solid surface through an enzyme-linked reagent.

A further data set relates to hyaluronan synthase. The settings on record: for IC50: read-out: HA synthase activity (IC50), membranes of human fibroblasts; for hyaluronan transport / synthase activity in membranes: membranes from human fibroblasts.
For a further data set, the target named is MRP2 (Homo sapiens, UniProt Q92887). As to conditions: cited from earlier work.
For another data set, the target named is MRP3 (Homo sapiens, UniProt O15438). The settings on record: cited from earlier work.
In the next data set the target is MRP5 (Homo sapiens, UniProt O15440). The settings on record: cited from earlier work.
The next data set deals with T1, MRP4 (Homo sapiens, UniProt O15439).
T1 sequence (O15439 1-1325): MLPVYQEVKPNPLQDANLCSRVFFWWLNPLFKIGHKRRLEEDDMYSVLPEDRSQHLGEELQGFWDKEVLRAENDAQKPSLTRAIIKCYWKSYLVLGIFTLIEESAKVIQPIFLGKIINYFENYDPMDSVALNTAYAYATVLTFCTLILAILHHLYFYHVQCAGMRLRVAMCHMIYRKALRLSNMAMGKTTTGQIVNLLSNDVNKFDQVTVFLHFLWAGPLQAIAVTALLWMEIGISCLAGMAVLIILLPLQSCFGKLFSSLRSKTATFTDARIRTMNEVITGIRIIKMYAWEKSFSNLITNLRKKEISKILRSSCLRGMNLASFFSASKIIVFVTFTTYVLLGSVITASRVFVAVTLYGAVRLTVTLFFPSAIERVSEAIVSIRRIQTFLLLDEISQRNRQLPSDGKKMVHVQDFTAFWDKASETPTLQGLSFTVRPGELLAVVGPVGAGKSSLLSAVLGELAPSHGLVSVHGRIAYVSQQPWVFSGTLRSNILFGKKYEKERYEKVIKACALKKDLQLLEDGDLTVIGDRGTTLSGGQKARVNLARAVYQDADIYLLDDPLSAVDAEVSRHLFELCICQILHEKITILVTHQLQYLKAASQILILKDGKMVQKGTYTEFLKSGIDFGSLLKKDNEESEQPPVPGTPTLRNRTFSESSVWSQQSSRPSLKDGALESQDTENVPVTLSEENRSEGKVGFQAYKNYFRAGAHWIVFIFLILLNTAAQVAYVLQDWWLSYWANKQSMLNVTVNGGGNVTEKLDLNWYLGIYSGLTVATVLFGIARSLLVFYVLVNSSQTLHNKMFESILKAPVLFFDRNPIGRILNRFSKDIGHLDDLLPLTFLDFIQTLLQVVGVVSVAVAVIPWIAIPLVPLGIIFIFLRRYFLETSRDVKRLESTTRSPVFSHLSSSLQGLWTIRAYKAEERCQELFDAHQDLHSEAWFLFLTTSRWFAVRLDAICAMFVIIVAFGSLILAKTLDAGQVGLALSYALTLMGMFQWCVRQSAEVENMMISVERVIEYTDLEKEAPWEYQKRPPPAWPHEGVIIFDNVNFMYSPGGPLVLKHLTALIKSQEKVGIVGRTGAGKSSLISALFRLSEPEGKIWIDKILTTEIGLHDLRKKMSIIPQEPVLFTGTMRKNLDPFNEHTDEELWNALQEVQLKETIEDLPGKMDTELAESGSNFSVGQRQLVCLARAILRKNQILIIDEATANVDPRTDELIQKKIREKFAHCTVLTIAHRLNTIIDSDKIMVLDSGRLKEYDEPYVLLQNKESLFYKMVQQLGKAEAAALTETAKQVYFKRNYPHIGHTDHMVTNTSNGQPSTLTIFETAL
The settings on record: cited from earlier work.

The test system of a further data set is hyaluronan transport. As to the kind of experiment: Inhibition of hyaluronan transport (export) from human fibroblasts, discussion of Example 9. As to conditions: for inhibition of hyaluronan transport (words): human fibroblasts.
Another data set deals with human skin fibroblasts. Nature of the data set: Proliferation of human skin fibroblasts (cell counting). It counts as cell-based. The settings on record: for IC50: read-out: Proliferation (IC50). The method, then: Human fibroblasts were grown in […] in Dulbecco's modified Eagles medium supplemented with streptomycin/penicillin (100 units of each/ml), kanamycin (100 units/ml) and 10% foetal calf serum. Cell proliferation was determined by cell counting after trypsinisation three days after seeding.

Data set [1] concerns the target MRP transporters (Homo sapiens, UniProt P33527). The settings on record: read-out: IC50 for MRP transporter; cited from earlier work.
Another data set has as its target MDR1 (Homo sapiens, UniProt P08183). The settings on record: cited from earlier work.
Another data set deals with MRP1 (Homo sapiens, UniProt P33527). As to conditions: cited from earlier work.
Data set [2] deals with T2, MRP transporters.
T2 construct: other: human erythrocytes
The settings on record: human erythrocytes; cited from earlier work.

A further data set deals with chloride channel. The settings on record: cited from earlier work.
Data set [3] deals with human synovial fibroblasts. Nature of the data set: Growth of human synovial fibroblasts. It counts as cell-based.
Data set [4] concerns human synovial fibroblasts. Nature of the data set: Hyaluronan production of human synovial fibroblasts. It counts as cell-based.
The subject of the next data set is membranes from HT29. Nature of the data set: Hyaluronan transport activity in isolated membranes from HT29. In kind it is biochemical, human.
Data set [5] relates to osteoarthritic cartilage in rat knee joints. As to the kind of experiment: Iodoacetate rat model of osteoarthritis, proteoglycan loss in knee cartilage. In kind it is in vivo. On the procedure:
Osteoarthritic damage was induced in the left knees iodoacetate into the synovial cavity. The right knees remained untreated and served as controls. Three rates were feed with normal drinking water and three with drinking water containing Verapamil. After 17 days the rats were sacrificed and the articular cartilage was analysed histologically. Acid polysaccharides were stained with alcian blue and the preparation was counterstained with nuclear fast red.
The animal trials were performed in accordance with the guidelines of the local ethical committee. Osteoarthritic damage was induced in the left knees of 6 Wistar rats by injection of a solution of 50 μl of 10 mM iodoacetate into the synovial cavity. […] After 17 days the rats were sacrificed and the articular cartilage was analysed histologically. […]
Male Wistar rats (Charles River, Sulzfeld, Germany) having a body weight of 150 g were fed on ordinary laboratory diet and were housed in cages with a floor area of 800 cm^2. […] After 21 days, the rats were sacrificed and the articular cartilage was analysed by histology. […] Digital photos were taken and the blue colour of the proteoglycans was quantitatively evaluated by the free Scion Image Software. To eliminate staining artefacts, the staining of proteoglycans on the joint surface was related to the staining density at the […] and expressed as percent. […]

A further data set relates to HT29. As to the kind of experiment: Hyaluronan production of colon carcinoma cell line HT29 (versus HT29-mdr). The settings on record: increasing concentrations.
The test system of the next data set is ABCA. As to conditions: ABCA1; read-out: IC50, secretion of macrophage inhibitory factor (ABCA1); cited from earlier work.
Setting [6] is: Fibroblast, human fibroblasts, culture medium.

Sequence of MRP1 (P33527 whole entry): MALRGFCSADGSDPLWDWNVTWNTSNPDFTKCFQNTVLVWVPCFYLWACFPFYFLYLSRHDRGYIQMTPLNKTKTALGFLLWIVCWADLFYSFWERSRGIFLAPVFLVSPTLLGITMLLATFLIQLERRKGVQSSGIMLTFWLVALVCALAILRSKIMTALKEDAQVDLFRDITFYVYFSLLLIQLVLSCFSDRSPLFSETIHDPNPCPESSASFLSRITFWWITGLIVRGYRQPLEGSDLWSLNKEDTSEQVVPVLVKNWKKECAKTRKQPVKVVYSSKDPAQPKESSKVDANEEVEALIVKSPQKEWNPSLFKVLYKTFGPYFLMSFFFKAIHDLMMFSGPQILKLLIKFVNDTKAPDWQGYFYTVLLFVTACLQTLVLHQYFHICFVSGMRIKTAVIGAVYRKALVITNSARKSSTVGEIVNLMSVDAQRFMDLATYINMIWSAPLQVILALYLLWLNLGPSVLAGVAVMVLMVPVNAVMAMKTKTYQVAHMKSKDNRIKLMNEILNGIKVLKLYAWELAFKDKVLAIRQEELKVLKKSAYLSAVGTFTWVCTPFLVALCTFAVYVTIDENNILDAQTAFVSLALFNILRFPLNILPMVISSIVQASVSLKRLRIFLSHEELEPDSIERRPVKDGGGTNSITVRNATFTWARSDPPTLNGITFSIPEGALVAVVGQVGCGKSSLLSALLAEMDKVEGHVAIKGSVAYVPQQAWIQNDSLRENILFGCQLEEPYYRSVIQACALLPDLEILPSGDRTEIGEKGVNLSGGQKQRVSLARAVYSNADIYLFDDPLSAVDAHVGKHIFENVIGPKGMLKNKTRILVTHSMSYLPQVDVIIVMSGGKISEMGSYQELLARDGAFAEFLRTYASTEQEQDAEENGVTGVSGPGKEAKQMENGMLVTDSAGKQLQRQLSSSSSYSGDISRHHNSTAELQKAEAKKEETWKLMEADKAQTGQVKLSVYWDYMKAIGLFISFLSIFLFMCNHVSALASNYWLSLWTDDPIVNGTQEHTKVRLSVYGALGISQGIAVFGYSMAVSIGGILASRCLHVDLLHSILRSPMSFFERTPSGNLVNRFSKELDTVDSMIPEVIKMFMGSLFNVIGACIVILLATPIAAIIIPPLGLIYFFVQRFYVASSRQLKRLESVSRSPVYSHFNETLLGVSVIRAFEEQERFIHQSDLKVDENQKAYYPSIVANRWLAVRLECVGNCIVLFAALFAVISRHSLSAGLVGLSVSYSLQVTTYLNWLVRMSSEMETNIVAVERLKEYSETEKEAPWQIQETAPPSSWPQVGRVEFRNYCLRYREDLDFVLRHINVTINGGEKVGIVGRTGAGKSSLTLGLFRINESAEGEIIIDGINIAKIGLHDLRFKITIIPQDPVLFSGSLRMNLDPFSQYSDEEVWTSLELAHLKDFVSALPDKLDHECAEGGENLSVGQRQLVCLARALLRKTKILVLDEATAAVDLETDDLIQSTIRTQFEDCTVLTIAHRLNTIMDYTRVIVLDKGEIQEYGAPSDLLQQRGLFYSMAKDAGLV
Sequence of MDR1 (P08183 whole entry): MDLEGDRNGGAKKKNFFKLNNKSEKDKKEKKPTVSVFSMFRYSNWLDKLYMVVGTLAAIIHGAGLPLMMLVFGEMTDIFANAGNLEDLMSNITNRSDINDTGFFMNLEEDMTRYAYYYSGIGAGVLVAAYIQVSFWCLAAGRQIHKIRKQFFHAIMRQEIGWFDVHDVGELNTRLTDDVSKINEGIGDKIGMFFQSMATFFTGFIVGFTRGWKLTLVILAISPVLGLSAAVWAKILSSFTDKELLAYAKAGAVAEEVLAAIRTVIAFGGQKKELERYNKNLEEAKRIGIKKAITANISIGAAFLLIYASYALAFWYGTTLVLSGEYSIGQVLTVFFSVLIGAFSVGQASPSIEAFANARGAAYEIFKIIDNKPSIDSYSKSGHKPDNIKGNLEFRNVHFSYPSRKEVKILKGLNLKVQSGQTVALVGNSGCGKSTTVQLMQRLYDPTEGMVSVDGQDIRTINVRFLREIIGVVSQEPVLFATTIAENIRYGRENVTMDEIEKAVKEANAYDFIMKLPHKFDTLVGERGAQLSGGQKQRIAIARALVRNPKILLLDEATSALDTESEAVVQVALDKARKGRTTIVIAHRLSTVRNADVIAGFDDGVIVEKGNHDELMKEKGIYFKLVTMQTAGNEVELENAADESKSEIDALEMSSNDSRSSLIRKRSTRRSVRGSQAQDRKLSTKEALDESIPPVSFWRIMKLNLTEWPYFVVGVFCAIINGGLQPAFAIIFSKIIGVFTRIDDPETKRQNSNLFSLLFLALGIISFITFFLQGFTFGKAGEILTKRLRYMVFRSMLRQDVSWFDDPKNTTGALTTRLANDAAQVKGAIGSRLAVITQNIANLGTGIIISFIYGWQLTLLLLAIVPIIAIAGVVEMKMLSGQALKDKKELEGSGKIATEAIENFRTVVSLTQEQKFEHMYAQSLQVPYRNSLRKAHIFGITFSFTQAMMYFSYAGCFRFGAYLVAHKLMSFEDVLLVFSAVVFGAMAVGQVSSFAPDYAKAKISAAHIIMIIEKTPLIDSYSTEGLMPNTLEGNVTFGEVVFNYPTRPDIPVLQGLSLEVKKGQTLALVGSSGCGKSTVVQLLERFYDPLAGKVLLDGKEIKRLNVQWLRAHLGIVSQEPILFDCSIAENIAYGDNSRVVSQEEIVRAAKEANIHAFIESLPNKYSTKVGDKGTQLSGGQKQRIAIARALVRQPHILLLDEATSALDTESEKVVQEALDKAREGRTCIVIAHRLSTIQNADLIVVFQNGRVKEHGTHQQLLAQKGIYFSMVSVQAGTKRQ
Sequence of MRP5 (O15440 whole entry): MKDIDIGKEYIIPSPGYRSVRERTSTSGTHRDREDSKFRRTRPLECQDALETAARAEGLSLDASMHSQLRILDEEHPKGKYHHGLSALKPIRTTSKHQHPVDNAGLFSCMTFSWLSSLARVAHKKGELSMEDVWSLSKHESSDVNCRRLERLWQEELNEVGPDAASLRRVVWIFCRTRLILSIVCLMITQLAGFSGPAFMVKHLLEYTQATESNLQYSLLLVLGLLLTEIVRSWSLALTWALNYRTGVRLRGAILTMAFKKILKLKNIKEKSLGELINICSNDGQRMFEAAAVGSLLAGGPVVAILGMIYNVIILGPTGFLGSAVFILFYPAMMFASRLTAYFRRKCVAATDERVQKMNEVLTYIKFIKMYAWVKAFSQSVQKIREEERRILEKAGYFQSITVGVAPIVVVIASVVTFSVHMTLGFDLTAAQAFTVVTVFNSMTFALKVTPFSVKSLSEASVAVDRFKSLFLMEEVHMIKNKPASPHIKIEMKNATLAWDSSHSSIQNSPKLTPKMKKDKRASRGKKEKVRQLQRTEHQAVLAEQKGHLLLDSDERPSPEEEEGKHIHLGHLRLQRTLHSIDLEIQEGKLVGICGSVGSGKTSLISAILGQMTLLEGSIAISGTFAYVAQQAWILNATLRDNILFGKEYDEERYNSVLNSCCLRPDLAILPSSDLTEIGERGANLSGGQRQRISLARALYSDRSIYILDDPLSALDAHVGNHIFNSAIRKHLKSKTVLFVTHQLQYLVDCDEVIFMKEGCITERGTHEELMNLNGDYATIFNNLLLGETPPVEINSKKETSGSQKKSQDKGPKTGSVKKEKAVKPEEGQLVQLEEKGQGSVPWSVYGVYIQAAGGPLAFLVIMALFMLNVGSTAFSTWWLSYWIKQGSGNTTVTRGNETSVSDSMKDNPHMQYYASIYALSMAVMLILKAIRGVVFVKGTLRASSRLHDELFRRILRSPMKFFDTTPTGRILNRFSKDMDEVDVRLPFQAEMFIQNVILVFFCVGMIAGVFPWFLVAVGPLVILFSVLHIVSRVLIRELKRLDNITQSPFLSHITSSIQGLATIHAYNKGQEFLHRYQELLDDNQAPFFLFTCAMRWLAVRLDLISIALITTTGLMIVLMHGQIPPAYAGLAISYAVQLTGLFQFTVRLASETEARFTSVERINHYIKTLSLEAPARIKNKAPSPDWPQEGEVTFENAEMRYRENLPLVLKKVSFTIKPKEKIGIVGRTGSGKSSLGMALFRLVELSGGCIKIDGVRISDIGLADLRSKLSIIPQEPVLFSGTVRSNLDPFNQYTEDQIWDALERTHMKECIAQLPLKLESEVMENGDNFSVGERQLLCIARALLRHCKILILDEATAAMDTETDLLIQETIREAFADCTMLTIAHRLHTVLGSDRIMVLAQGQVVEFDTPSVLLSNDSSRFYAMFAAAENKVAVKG
Sequence of MRP transporters (Homo sapiens, UniProt P33527) (P33527 whole entry): as the sequence (P33527 whole entry) above

As to `CCCCCCCCCCSC[C@H](NC(=O)CC[C@H](N)C(=O)O)C(=O)NCC(=O)O` [S-decylglutathione], the IC50 in the data set on human fibroblasts (setting [6]) came out at 7 µM; in the data set on hyaluronan synthase it was 40 µM. Also, on MRP2, the “published inhibitory concentrations IC50 or Ki, MRP2” value is “good”. In addition, the “published inhibitory concentrations IC50 or Ki, MRP3” value at MRP3 is listed as “low”. On MRP5, the “published inhibitory concentrations IC50 or Ki, MRP5” value is “good”. In addition, the “published inhibitory concentrations IC50 or Ki, MRP4” value at MRP4 is recorded as “good”. Further, the “inhibition of hyaluronan transport (words)” value (shortened to “inhibition … (words)”) in the data set with hyaluronan transport is “very good inhibitor”.

Turning to `COc1ccc2c(c1)c(CC(=O)O)c(C)n2C(=O)c1ccc(Cl)cc1` [Indomethacin], the IC50 in the data set on human skin fibroblasts (Homo sapiens, Skin fibroblast) was 200 µM; in the data set with human fibroblasts (setting [6]), 50 µM; with hyaluronan synthase, 10 µM; on MRP5 (read-out: published inhibitory concentrations IC50 or Ki, MRP5), over 100 µM; on MRP5 (substrate S-(2,4-dinitrophenyl)glutathione, read-out: IC50, MRP5 mediated transport of S-(2,4-dinitrophenyl)glutathione), over 100 µM; at MRP transporters [1], 10 to 20 µM. The IC50 at MDR1 (read-out: IC50 for MDR1) was over 800 µM; on MDR1 (read-out: published inhibitory concentrations IC50 or Ki, MDR1), over 800 µM; on MRP1 (read-out: IC50, transport of 17β-glucuronosyl-estradiol by MRP1, substrate 17β-glucuronosyl-estradiol), about 50 µM. Besides, the results for the “inhibition … (words)” value in the data set on hyaluronan transport and in the data set on hyaluronan transport (listed as indomethacin) were “very good inhibition” and “inhibited hyaluronan transport”, respectively.

Take `O=S(=O)(O)c1cc(N=C=S)ccc1C=Cc1ccc(N=C=S)cc1S(=O)(=O)O` [DIDS, 4,4-diisothiocyanatostilbene-2,2-disulfonic acid]: the IC50 with human skin fibroblasts (human fibroblasts) was 250 µM; in the data set on human fibroblasts (human fibroblasts, culture medium), 50 µM; in the data set on hyaluronan synthase it was over 400 µM; in the data set with MRP transporters [2], 150 to 300 µM; on MRP1 it was 150 to 300 µM; on MRP4 it was 150 to 300 µM. Also, the “decrease of hyaluronan transport activity” value in the data set on hyaluronan synthase (membranes from human fibroblast cell line) is reported as 70%. Further, at chloride channel, the Ki was 0.84 µM. In addition, the “inhibition … (words)” value in the data set on hyaluronan transport is recorded as “partially”.

`COc1ccc(CCN(C)CCCC(C#N)(c2ccc(OC)c(OC)c2)C(C)C)cc1OC` (centres unmarked) [Verapamil]: the IC50 with human skin fibroblasts (Homo sapiens, Skin fibroblast) was 20 µM; in the data set on human fibroblasts (Homo sapiens, Fibroblast) it was 15 µM; with hyaluronan synthase, about 50 µM; with hyaluronan transport (Homo sapiens, Fibroblast, read-out: IC50 for hyaluronan transport (export)) it was about 50 µM. In addition, the “cell growth” value in the data set on human skin fibroblasts (human skin fibroblasts, increasing concentrations, 3 days) is listed as “reduced”. Also, in the data set with human fibroblasts, the “hyaluronan in culture medium” value was “reduced”. Moreover, the “growth of human synovial fibroblasts” value in data set [3] is “inhibited growth”. The “hyaluronan production of human synovial fibroblasts” value in data set [4] was “inhibited”. Moreover, in the data set on membranes from HT29, the “hyaluronan transport activity in membranes, sensitive cell line HT29” value is given as “inhibition is not complete”. Also, the “protection from proteoglycan loss” value is on record as “completely protected from proteoglycan loss” in data set [5] (administered at the day of injury or three days later, analysed after 21 days) and “partially prevent proteoglycan loss” in data set [5] (treatment started later than three days, up to 21 days after injury). Besides, the “hyaluronan transport / synthase activity in membranes” value with hyaluronan synthase was “blocked the hyaluronan transport in a concentration dependent manner”. For the same compound, in the data set on HT29, the “hyaluronan transport in HT29 compared with HT29-mdr” value is reported as “more efficiently blocked hyaluronan transport in HT29 than in HT29-mdr”. Further, the “inhibition … (words)” value in the data set on hyaluronan transport is on record as “inhibited also hyaluronan synthesis”.

Consider `CN(Cc1cnc2nc(N)nc(N)c2n1)c1ccc(C(=O)N[C@@H](CCC(=O)O)C(=O)O)cc1` [methotrexate], for which the IC50 in the data set with human skin fibroblasts (Homo sapiens, Skin fibroblast) is about 200 µM; with human fibroblasts (setting [6]), about 200 µM; with hyaluronan synthase, over 400 µM. Further, the “hyaluronan transport / synthase activity in membranes” value in the data set on hyaluronan synthase is recorded as “did not inhibit”. For the same compound, the “published inhibitory concentrations IC50 or Ki, MRP2” value on MRP2 is “substrate”. For the same compound, the “published inhibitory concentrations IC50 or Ki, MRP3” value at MRP3 is given as “substrate”. Moreover, the “published inhibitory concentrations IC50 or Ki, MRP5” value on MRP5 is given as “no”. Moreover, the “published inhibitory concentrations IC50 or Ki, MRP1” value at MRP1 is given as “substrate”. The “published inhibitory concentrations IC50 or Ki, MRP4” value at MRP4 is given as “substrate”. Further, in the data set on hyaluronan transport, the “inhibition … (words)” value is given as “did not inhibit”.

Consider `COc1ccc(Cl)cc1C(=O)NCCc1ccc(S(=O)(=O)NC(=O)NC2CCCCC2)cc1` [Glyburide], for which the IC50 in the data set with human skin fibroblasts (Homo sapiens, Skin fibroblast) is 7 µM; in the data set with human fibroblasts (setting [6]), about 400 µM; in the data set with hyaluronan synthase it was 120 µM; with ABCA, about 5 µM; on MRP4 (read-out: IC50, MRP4 mediated transport of cGMP, substrate cGMP, human erythrocytes) it was 1.9 µM. Moreover, the inhibition at 400 µM in the data set with human fibroblasts (Homo sapiens, Fibroblast, even at 400 μM, read-out: inhibition of hyaluronan secretion) was at most 50%. Moreover, in the data set with human fibroblasts, the “hyaluronan in culture medium” value is “partially inhibited”. Also, the “concentration inhibiting MDR1 mediated export of colchicine” value on MDR1 (substrate colchicine) is listed as “about 100 μM”.

By Ki is commonly meant the dissociation constant of the complex between target and ligand, obtained from inhibition or displacement. A word on the inhibition: it is the percentage by which the read-out fell short of the control.
